Assay results reported in a compilation of properties of binary mixtures (doi:10.5772/14848).

Assay: xn = mol fraction of the nth substance listed
Details: 101 kPa

CCC[N+]1(C)CCCC1.O=S(=O)([N-]S(=O)(=O)C(F)(F)F)C(F)(F)F + O=C1CCCO1
electrical conductivity (278.15 K, x1 = 0.0657): 0.831 S/m
electrical conductivity (278.15 K, x1 = 0.1741): 0.965 S/m
electrical conductivity (288.15 K, x1 = 0.0657): 0.987 S/m
electrical conductivity (288.15 K, x1 = 0.1741): 1.18 S/m
electrical conductivity (288.15 K, x1 = 0.3874): 0.765 S/m
electrical conductivity (298.15 K, x1 = 0.0657): 1.14 S/m
electrical conductivity (298.15 K, x1 = 0.1741): 1.39 S/m
electrical conductivity (298.15 K, x1 = 0.3874): 0.979 S/m
electrical conductivity (308.15 K, x1 = 0.0657): 1.3 S/m
electrical conductivity (308.15 K, x1 = 0.3874): 1.22 S/m
electrical conductivity (318.15 K, x1 = 0.0657): 1.46 S/m
electrical conductivity (318.15 K, x1 = 0.1741): 1.86 S/m
electrical conductivity (318.15 K, x1 = 0.3874): 1.47 S/m
electrical conductivity (328.15 K, x1 = 0.1741): 2.12 S/m
electrical conductivity (328.15 K, x1 = 0.3874): 1.74 S/m
electrical conductivity (338.15 K, x1 = 0.0657): 1.8 S/m
electrical conductivity (338.15 K, x1 = 0.1741): 2.35 S/m
electrical conductivity (338.15 K, x1 = 0.3874): 2 S/m
electrical conductivity (348.15 K, x1 = 0.0657): 1.96 S/m
electrical conductivity (358.15 K, x1 = 0.1741): 2.82 S/m
electrical conductivity (358.15 K, x1 = 0.3874): 2.56 S/m
